Several values for one entry are separate records, joined by “and”; a condition that tells them apart may be missing. Equal values may be shown once. Toxic doses and inconclusive results are not listed.
System: P388 leukemia ip, CD2F1 mice, survival T/C
Experiment: NCI In Vivo Anticancer Drug Screen. Data for tumor model P388 Leukemia (intraperitoneal) in CD2F1 (CDF1) mice
Conditions: endpoint: median survival time, higher = longer survival
Method in brief: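 Mice carrying the transplanted tumor received test compound or vehicle. Survival was recorded in each group, and the value is the treated-group measurement divided by that of the vehicle-treated control group.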

[1] = dose: 50.0 mg/kg/injection, schedule: Q01DX005 (ip), vehicle: Klucel (hydroxypropylcellulose) (HPC)
[2] = dose: 100.0 mg/kg/injection, schedule: Q01DX005 (ip), vehicle: Klucel (hydroxypropylcellulose) (HPC)
[3] = dose: 200.0 mg/kg/injection, schedule: Q01DX005 (ip), vehicle: Klucel (hydroxypropylcellulose) (HPC)
[4] = dose: 50.0 mg/kg/injection, schedule: Q01DX009 (ip), vehicle: Klucel (hydroxypropylcellulose) (HPC)
[5] = dose: 60.0 mg/kg/injection, schedule: Q01DX005 (ip), vehicle: saline with Tween-80
[6] = dose: 120.0 mg/kg/injection, schedule: Q01DX005 (ip), vehicle: saline with Tween-80
[7] = dose: 240.0 mg/kg/injection, schedule: Q01DX005 (ip), vehicle: saline with Tween-80
[8] = dose: 60.0 mg/kg/injection, schedule: Q01DX005 (ip), vehicle: saline
[9] = dose: 120.0 mg/kg/injection, schedule: Q01DX005 (ip), vehicle: saline
[10] = dose: 240.0 mg/kg/injection, schedule: Q01DX005 (ip), vehicle: saline
[11] = dose: 60.0 mg/kg/injection, schedule: Q01DX005 (ip), vehicle: Klucel (hydroxypropylcellulose) (HPC)
[12] = dose: 120.0 mg/kg/injection, schedule: Q01DX005 (ip), vehicle: Klucel (hydroxypropylcellulose) (HPC)
[13] = dose: 240.0 mg/kg/injection, schedule: Q01DX005 (ip), vehicle: Klucel (hydroxypropylcellulose) (HPC)
[14] = dose: 25.0 mg/kg/injection, schedule: Q01DX005 (ip), vehicle: Klucel (hydroxypropylcellulose) (HPC)

In the case of `CN(C)C(=[Se])[Se]C(=[Se])N(C)C`, the T/C (dose: 3.75 mg/kg/injection, schedule: Q01DX005 (ip), vehicle: Klucel (hydroxypropylcellulose) (HPC)) is reported as 99 % of control, the T/C (dose: 7.5 mg/kg/injection, schedule: Q01DX005 (ip), vehicle: Klucel (hydroxypropylcellulose) (HPC)) is reported as 99 % of control and the T/C (dose: 15.0 mg/kg/injection, schedule: Q01DX005 (ip), vehicle: Klucel (hydroxypropylcellulose) (HPC)) is reported as 100 % of control.

In the case of `OC1CC2c3ccccc3C1c1ccccc12` (centres undefined), the T/C [1] is reported as 95 % of control, the T/C [2] is reported as 99 % of control and the T/C [3] is reported as 100 % of control.

For `CCCCOS(=O)(=O)c1ccc([N+](C)(C)C)cc1`, the T/C (dose: 12.5 mg/kg/injection, schedule: Q01DX009 (ip), vehicle: Klucel (hydroxypropylcellulose) (HPC)) was 100 % of control, the T/C (dose: 25.0 mg/kg/injection, schedule: Q01DX009 (ip), vehicle: Klucel (hydroxypropylcellulose) (HPC)) was 102 % of control and the T/C [4] was 104 % of control.

For `O=c1[nH]c(Nc2ccccc2)c([N+](=O)[O-])c(=O)[nH]1`, the T/C [5] was 106 % of control, the T/C [6] was 107 % of control and the T/C [7] was 106 % of control.

`CC1(C)CC(=O)C(C(c2ccccc2O)C2C(=O)CC(C)(C)CC2=O)C(=O)C1` was tested, and the T/C [1] was 102 % of control, the T/C [2] was 102 % of control and the T/C [3] was 102 % of control.

`NC(=O)Oc1ccccc1` was tested, and the T/C (dose: 100.0 mg/kg/injection, schedule: Q04DX003 (ip), vehicle: saline with Tween-80) was 100 % of control, the T/C (dose: 200.0 mg/kg/injection, schedule: Q04DX003 (ip), vehicle: saline with Tween-80) was 104 % of control and the T/C (dose: 400.0 mg/kg/injection, schedule: Q04DX003 (ip), vehicle: saline with Tween-80) was 100 % of control.

For `CC(=O)OC1C(C(O)CO)OC2OC(C)(C)OC21` (centres undefined), the T/C [8] was 100 % of control, the T/C [9] was 105 % of control and the T/C [10] was 96 % of control.

`Cc1cc(=O)oc2c(-c3ccccc3)n[nH]c(=O)c12` was tested, and the T/C [11] was 104 % of control, the T/C [12] was 95 % of control and the T/C [13] was 97 % of control.

`C[C-]=NCCCl.C[C-]=O.[C-]#[O+].[C-]#[O+].[C-]#[O+].[C-]#[O+].[Re]` was tested, and the T/C (dose: 12.5 mg/kg/injection, schedule: Q01DX005 (ip), vehicle: Klucel (hydroxypropylcellulose) (HPC)) was 102 % of control, the T/C [14] was 89 % of control and the T/C [1] was 93 % of control and 98 % of control.

For `CCOC(=O)c1nc(N(C)C)oc(=O)c1C`, the T/C [8] was 101 % of control, the T/C [9] was 97 % of control and the T/C [10] was 100 % of control.

For `COc1ccc(C(=O)/C=C/c2ccc(OC)c(OC)c2OC)c(OC(C)=O)c1`, the T/C (dose: 100.0 mg/kg/injection, schedule: Q04DX003 (ip), vehicle: Klucel (hydroxypropylcellulose) (HPC)) was 98 % of control, the T/C (dose: 200.0 mg/kg/injection, schedule: Q04DX003 (ip), vehicle: Klucel (hydroxypropylcellulose) (HPC)) was 91 % of control and the T/C (dose: 400.0 mg/kg/injection, schedule: Q04DX003 (ip), vehicle: Klucel (hydroxypropylcellulose) (HPC)) was 93 % of control.

In the case of `O=C(O)c1c[nH]c2cc(OCc3ccc4ccccc4c3)ccc2c1=O`, the T/C (dose: 100.0 mg/kg/injection, schedule: Q04DX003 (ip), vehicle: saline) is reported as 90 % of control, the T/C (dose: 200.0 mg/kg/injection, schedule: Q04DX003 (ip), vehicle: saline) is reported as 97 % of control and the T/C (dose: 400.0 mg/kg/injection, schedule: Q04DX003 (ip), vehicle: saline) is reported as 87 % of control.

For `CCN1CCN(CCCl)C1=O`, the T/C (dose: 200.0 mg/kg/injection, schedule: Q01DX009 (ip), vehicle: saline) was 160 % of control.

`CC(=O)OCCS(=O)Cc1ccccc1` (centres undefined) was tested, and the T/C [8] was 92 % of control, the T/C [9] was 94 % of control and the T/C [10] was 100 % of control.

In the case of `CCSc1nc2ccc(N=C/C=C/c3ccccc3)cc2s1`, the T/C [4] is reported as 110 % of control, the T/C (dose: 100.0 mg/kg/injection, schedule: Q01DX009 (ip), vehicle: Klucel (hydroxypropylcellulose) (HPC)) is reported as 98 % of control and the T/C (dose: 200.0 mg/kg/injection, schedule: Q01DX009 (ip), vehicle: Klucel (hydroxypropylcellulose) (HPC)) is reported as 110 % of control.

For `COc1cc(OC)c(C2c3cc4c(cc3OC(C)(O)C2C)OCO4)c(OC)c1` (centres undefined), the T/C (dose: 100.0 mg/kg/injection, schedule: Q04DX002 (ip), vehicle: saline with Tween-80) was 94 % of control, the T/C (dose: 200.0 mg/kg/injection, schedule: Q04DX002 (ip), vehicle: saline with Tween-80) was 89 % of control and the T/C (dose: 400.0 mg/kg/injection, schedule: Q04DX002 (ip), vehicle: saline with Tween-80) was 102 % of control.

In the case of `Cn1c(=O)c2c(nnc(-c3ccc(Cl)cc3)[n+]2[O-])n(C)c1=O`, the T/C (dose: 100.0 mg/kg/injection, schedule: Q01DX001 (ip), vehicle: Klucel (hydroxypropylcellulose) (HPC)) is reported as 106 % of control.

With `O=C1Nc2ccccc2C1=Nc1ccc2[nH]c3ccccc3c2c1` the T/C [11] was 92 % of control, the T/C [12] was 93 % of control and the T/C [13] was 88 % of control.

`CCOC(=O)c1ccc(N2C(=O)C(Cl)(c3ccccc3)C2c2ccco2)cc1` (centres undefined) was tested, and the T/C [5] was 100 % of control, the T/C [6] was 95 % of control and the T/C [7] was 94 % of control.

`CC1(C)OC2OC3COP(=O)(c4ccccc4)C3(CC#N)C2O1` (centres undefined) was tested, and the T/C [5] was 94 % of control, the T/C [6] was 99 % of control and the T/C [7] was 98 % of control.

`COc1cc(C2c3cc4c(cc3[C@@H](OC3OC(COC(C)=O)C(OC(C)=O)C(OC(C)=O)C3OC(C)=O)[C@H]3COC(=O)[C@H]23)OCO4)cc(OC)c1OC` (some centres undefined) was tested, and the T/C (dose: 4.0 mg/kg/injection, schedule: Q01DX005 (ip), vehicle: saline) was 107 % of control, the T/C (dose: 8.0 mg/kg/injection, schedule: Q01DX005 (ip), vehicle: saline) was 113 % of control and the T/C (dose: 16.0 mg/kg/injection, schedule: Q01DX005 (ip), vehicle: saline) was 105 % of control. For the same compound, the T/C (dose: 32.0 mg/kg/injection, schedule: Q01DX005 (ip), vehicle: saline) was 98 % of control and 105 % of control, the T/C (dose: 64.0 mg/kg/injection, schedule: Q01DX005 (ip), vehicle: saline) was 100 % of control and the T/C (dose: 128.0 mg/kg/injection, schedule: Q01DX005 (ip), vehicle: saline) was 100 % of control.

In the case of `O=C(NC1CCCCC1)O/N=C/c1ccccn1`, the T/C (dose: 50.0 mg/kg/injection, schedule: Q01DX001 (ip), vehicle: other) is reported as 95 % of control, the T/C (dose: 100.0 mg/kg/injection, schedule: Q01DX001 (ip), vehicle: other) is reported as 95 % of control and the T/C (dose: 200.0 mg/kg/injection, schedule: Q01DX001 (ip), vehicle: other) is reported as 100 % of control.

`COC(=O)c1cccc2c1Oc1ccccc1S2` was tested, and the T/C [14] was 102 % of control, the T/C [1] was 103 % of control and the T/C [2] was 102 % of control. The T/C [3] was 100 % of control.

In the case of `C=C1C(=O)OC2/C=C(\C)CC/C=C(\C(=O)O)CC/C=C(/C)CCC12` (centres undefined), the T/C (dose: 5.0 mg/kg/injection, schedule: Q01DX005 (ip), vehicle: Klucel (hydroxypropylcellulose) (HPC)) is reported as 100 % of control, the T/C (dose: 10.0 mg/kg/injection, schedule: Q01DX005 (ip), vehicle: Klucel (hydroxypropylcellulose) (HPC)) is reported as 117 % of control and the T/C (dose: 20.0 mg/kg/injection, schedule: Q01DX005 (ip), vehicle: Klucel (hydroxypropylcellulose) (HPC)) is reported as 118 % of control. For the same compound, the T/C (dose: 40.0 mg/kg/injection, schedule: Q01DX005 (ip), vehicle: Klucel (hydroxypropylcellulose) (HPC)) was 115 % of control and the T/C (dose: 80.0 mg/kg/injection, schedule: Q01DX005 (ip), vehicle: Klucel (hydroxypropylcellulose) (HPC)) was 115 % of control.

With `Cc1ccccc1/C(=C/c1ccc([N+](=O)[O-])cc1)C(=O)O` the T/C [11] was 108 % of control, the T/C [12] was 108 % of control and the T/C [13] was 112 % of control.

For `O=C(CSC(c1ccccc1)(c1ccccc1)c1ccccc1)c1ccc([N+](=O)[O-])cc1`, the T/C [1] was 100 % of control, the T/C [2] was 105 % of control and the T/C [3] was 95 % of control.

For `CNc1ncn(-c2c(C)cccc2C)c(=O)n1`, the T/C [5] was 101 % of control and 106 % of control, the T/C [6] was 108 % of control and the T/C [7] was 117 % of control.

For `[Cl][Hg][CH]1CCC2OC1CC[CH]2[Hg][Cl]` (centres undefined), the T/C (dose: 1.56 mg/kg/injection, schedule: Q01DX009 (ip), vehicle: saline with Tween-80) was 112 % of control, the T/C (dose: 3.12 mg/kg/injection, schedule: Q01DX009 (ip), vehicle: saline with Tween-80) was 105 % of control and 118 % of control and the T/C (dose: 6.25 mg/kg/injection, schedule: Q01DX009 (ip), vehicle: saline with Tween-80) was 121 % of control and 91 % of control. For the same compound, the T/C (dose: 12.5 mg/kg/injection, schedule: Q01DX009 (ip), vehicle: saline with Tween-80) was 94 % of control.

In the case of `CC(C)=Cc1cc(-c2cc(C=C(C)C)nc(N)n2)nc(N)n1`, the T/C [8] is reported as 97 % of control and the T/C [9] is reported as 94 % of control.

From PubChem BioAssay AID330 (DTP/NCI, 2004)
